# Columns and labels:
# tumor [1] = test: 5-FU and oral BAU in tumor-bearing CD8FI mice (Table 5); settings: 5-FU 150 mg/kg/wk
# [2] = Toxic dose of weekly 5-FU and severity of myelosuppression in patients (Table 1); type: in vivo, human; settings: for Toxic dose: weekly i.v. 5-FU
# Procedure: A representative schedule of clinical administration includes administering weekly i.v. injections of a bolus of 5-FU on an outpatient basis. A typical starting dose is about 500 mg/m^2. Every four weeks the 5-FU dose is increased by 20% until dose-limiting toxicity occurs, which can be indicated by weight loss, or destruction of bone marrow cells and the loss of white blood cells.
# breast tumors = test: Toxicity of 5-FU 130 mg/kg/wk in CD8FI female mice with breast tumors (FIG. 1); type: in vivo, mouse
# Procedure: (§1) FIG. 1 is a plot showing the toxicity of 5-fluorouracil. Toxicity in the plot is measured as a function of the percent of body weight change over time.
# (§2) FIG. 1 establishes that 5-FU administered by i.v. in doses of 130 mg/kg/wk to mice is a toxic dose. Toxicity is determined by a change in body weight. Ten CD8FI female mice with breast tumors were treated with weekly doses of 5-fluorouracil in amounts of 130 mg/kg for three weeks. The percent of body weight change of the mice is shown and plotted over a period of approximately 12 days after administration of the last dose. The mice receiving 130 mg/kg of 5-FU suffered a weight loss of approximately 25% and a mortality of 30%.
# [3] = as above; type: in vivo, mouse; settings: mouse, in vivo, iv; 5-FU 130 mg/kg/wk i.v. × 3 weeks
# Procedure: as §1, §2
# tumor [4] = test: Toxicity of 5-FU and tumor weight in tumor-bearing CD8FI female mice (Table 2)
# [5] = as above; settings: mouse, in vivo, iv
# BAU toxicity in animals = type: in vivo; settings: animal data
# Procedure: BAU may be administered orally at the rate of 0.5-2 g/m^2 every 4-6 hours for 3 days starting 1/2-2 hours after 5-FU administration, i.e., between 6 g/m^2 /wk and 36 g/m^2 /wk. Based on animal data BAU is non-toxic. Accordingly, it appears that the amounts of BAU which can be administered are not limited by toxic effects and, therefore, increased amounts of BAU may be administered.
# phosphorylase = settings: in combination with uridine (Martin et al); cited from earlier work
# thymidylate synthetase = settings: Goodman & Gilman 5th Ed.; cited from earlier work
# [6] = in vivo, cited from earlier work
# tumor [7] = test: 5-FU and oral uridine rescue plus BAU in tumor-bearing CD8FI mice (Table 7); type: in vivo, mouse; settings: 5-FU 150 mg/kg
# Procedure: (§3) Observations were recorded 6 days after the last injection.
# (§4) A second trial was repeated by administering uridine 2 hours after the administration of 5-fluorouracil in a concentration of 780 mg/kg and then 2 1/2 hours later at a concentration of 1,040 mg/kg every 8 hr×5.
# tumor [8] = test: 5-FU and oral uridine rescue in tumor-bearing CD8FI mice (Table 4); type: in vivo, mouse; settings: 5-FU 150 mg/kg weekly
# Procedure: as §3, §4
# [9] = patient 1, weekly 5-FU toxic dose 720 mg/m^2
# [10] = patient 2, weekly 5-FU toxic dose 600 mg/m^2
# [11] = patient 3, weekly 5-FU toxic dose 600 mg/m^2
# [12] = patient 4, weekly 5-FU toxic dose 864 mg/m^2
# [13] = patient 5, weekly 5-FU toxic dose 864 mg/m^2
# [14] = patient 6, weekly 5-FU toxic dose 864 mg/m^2
# [15] = patient 7, weekly 5-FU toxic dose 600 mg/m^2
# [16] = patient 8 (first), weekly 5-FU toxic dose 720 mg/m^2
# [17] = patient 8 (second), weekly 5-FU toxic dose 720 mg/m^2
# [18] = 5-FU 100 mg/kg i.v. weekly × 3, 6 days after last injection
# [19] = 5-FU 150 mg/kg i.v. weekly × 3, 6 days after last injection
# [20] = oral UR 600 then 800 mg/kg q. 8 hr × 5, plus oral BAU 250 mg/kg
# [21] = oral UR 780 then 1,040 mg/kg q. 8 hr × 5, plus oral BAU 250 mg/kg
# [22] = then oral UR 600 mg/kg at 2 hrs, then 800 mg/kg q. 8 hr × 5
# [23] = then oral UR 780 mg/kg at 2 hrs, then 1,040 mg/kg q. 8 hr × 5
smiles,measurement,setting,value
"O=c1[nH]cc(F)c(=O)[nH]1 [5-FU, 5-fluorouracil]",lethality of 5-FU (in words),tumor [1],lethal dose
same,"Nadir at toxicity, Platelets",[2]; [9],1.51e+08 mL⁻¹
same,"Nadir at toxicity, wbc",[2]; [9],1.6e+06 mL⁻¹
same,"Nadir at toxicity, Platelets",[2]; [10],1.01e+08 mL⁻¹
same,"Nadir at toxicity, wbc",[2]; [10],2.7e+06 mL⁻¹
same,"Nadir at toxicity, Platelets",[2]; [11],7.6e+07 mL⁻¹
same,"Nadir at toxicity, wbc",[2]; [11],1.4e+06 mL⁻¹
same,"Nadir at toxicity, Platelets",[2]; [12],1.1e+08 mL⁻¹
same,"Nadir at toxicity, wbc",[2]; [12],2.8e+06 mL⁻¹
same,"Nadir at toxicity, Platelets",[2]; [13],2.05e+08 mL⁻¹
same,"Nadir at toxicity, wbc",[2]; [13],2e+06 mL⁻¹
same,"Nadir at toxicity, Platelets",[2]; [14],8.4e+07 mL⁻¹
same,"Nadir at toxicity, wbc",[2]; [14],4.3e+06 mL⁻¹
same,"Nadir at toxicity, Platelets",[2]; [15],8.2e+07 mL⁻¹
same,"Nadir at toxicity, wbc",[2]; [15],6.7e+06 mL⁻¹
same,"Nadir at toxicity, Platelets",[2]; [16],9.5e+07 mL⁻¹
same,"Nadir at toxicity, wbc",[2]; [16],4.1e+06 mL⁻¹
same,"Nadir at toxicity, Platelets",[2]; [17],7.4e+07 mL⁻¹
same,"Nadir at toxicity, wbc",[2]; [17],3.7e+06 mL⁻¹
same,Toxic dose,"[2]; patient 1, WHO 1, prior chemotherapy None",720 mg/m^2
same,Toxic dose,"[2]; patient 2, WHO 1, prior chemotherapy None",600 mg/m^2
same,Toxic dose,"[2]; patient 3, WHO 0, prior HAI 5-FU",600 mg/m^2
same,Toxic dose,"[2]; patient 4, WHO 2, prior chemotherapy None",864 mg/m^2
same,Toxic dose,"[2]; patient 5, WHO 1, prior chemotherapy None",864 mg/m^2
same,Toxic dose,"[2]; patient 6, WHO 1, prior HAI 5-FU",864 mg/m^2
same,Toxic dose,"[2]; patient 7, WHO 1, prior TGU",600 mg/m^2
same,Toxic dose,"[2]; patient 8 (first), WHO 1, prior chemotherapy None",720 mg/m^2
same,Toxic dose,"[2]; patient 8 (second), WHO 0, prior FAC",720 mg/m^2
same,weight loss,breast tumors; 5-FU 130 mg/kg/wk i.v. × 3 weeks,approximately 25%
same,Toxic dose,"breast tumors; i.v., mice",130 mg/kg/wk
same,Mortality,[3],30%
same,Mortality,tumor [4]; [18],0/10
same,Tumor Weight,tumor [4]; [18],688 mgs
same,Mortality,tumor [4]; [19],8/10
same,Tumor Weight,tumor [4]; [19],433 mgs
same,MTD,[5],100 mg/kg
same,Mortality,[5]; 150 mg/kg,80%
"O=c1[nH]c(=O)n(COCCO)cc1Cc1ccccc1 [BAU, 5-benzylacyclouridine]",toxicity,BAU toxicity in animals,non-toxic
same,effect on uridine breakdown and clearance,phosphorylase,prevents the breakdown of uridine by phosphorylase and the subsequent rapid body clearance of uridine
"O=c1[nH]c(=O)n([C@H]2C[C@H](O)[C@@H](COP(=O)(O)O)O2)cc1F [F-dUMP, 5-fluoro-2'-deoxyuridine-5'-phosphate]",affinity for thymidylate synthetase,thymidylate synthetase,unusually great affinity
O=c1ccn([C@@H]2O[C@H](CO)[C@@H](O)[C@H]2O)c(=O)[nH]1 [uridine],side effects of intravenous uridine,[6]; iv,fever and phlebitis
same,side effects of oral uridine in large doses,[6]; po,"irritates the gastrointestinal tract, which frequently causes severe diarrhea"
same,catabolism of uridine,[6],quickly catabolized
same,plasma uridine levels after large doses of uridine,[6],millimolar or high micromolar uridine levels
same,Mortality,tumor [7]; [20],0/10
same,Tumor Weight,tumor [7]; [20],475 mgs
same,Mortality,tumor [7]; [21],1/10
same,Tumor Weight,tumor [7]; [21],434 mgs
same,Mortality,tumor [8]; [22],4/10
same,Tumor Weight,tumor [8]; [22],242 mgs
same,Mortality,tumor [8]; [23],0/10
same,Tumor Weight,tumor [8]; [23],361 mgs

# Source: patent publication US5543401A (priority 1994, dated 1996)
